From ChEMBL document CHEMBL1201861, “Genomics of Drug Sensitity in Cancer screening data, Wellcome Trust Sanger Institute”

Legend:
Assay in all cases: cells
SW756 = assay type: functional, cell-based; conditions: Homo sapiens;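 also: growth inhibition of human SW756 cells, read out with a cell viability assay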
Description: SANGER: Inhibition of human SW756 cell growth in a cell viability assay.

D-542MG = assay type: functional, cell-based; conditions: Homo sapiens
Description: SANGER: Inhibition of human D-542MG cell growth in a cell viability assay.

KYSE-450 = assay type: functional, cell-based; conditions: Homo sapiens;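 also: cell growth inhibition measured by a viability assay in human KYSE-450 cells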
Description: SANGER: Inhibition of human KYSE-450 cell growth in a cell viability assay.

NCI-H2452 = assay type: functional, cell-based; conditions: Homo sapiens;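 also: growth inhibition of NCI-H2452 cells, read out with a cell viability assay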
Description: SANGER: Inhibition of human NCI-H2452 cell growth in a cell viability assay.

COR-L105 = assay type: functional, cell-based; conditions: Homo sapiens;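 also: cell growth inhibition determined with a viability assay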
Description: SANGER: Inhibition of human COR-L105 cell growth in a cell viability assay.

ACHN = assay type: functional, cell-based; conditions: Homo sapiens;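 also: cell viability read-out used to gauge how strongly growth of human ACHN cells is suppressed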
Description: SANGER: Inhibition of human ACHN cell growth in a cell viability assay.

CAL-62 = assay type: functional, cell-based; conditions: Homo sapiens;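 also: growth inhibition of CAL-62 cells, read out with a cell viability assay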
Description: SANGER: Inhibition of human CAL-62 cell growth in a cell viability assay.

MHH-ES-1 = assay type: functional, cell-based; conditions: Homo sapiens;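 also: cell growth inhibition measured by a cell viability assay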
Description: SANGER: Inhibition of human MHH-ES-1 cell growth in a cell viability assay.

YAPC = assay type: functional, cell-based; conditions: Homo sapiens;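 also: growth inhibition of YAPC cells, measured with a cell viability assay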
Description: SANGER: Inhibition of human YAPC cell growth in a cell viability assay.

BFTC-905 = assay type: functional, cell-based; conditions: Homo sapiens
Description: SANGER: Inhibition of human BFTC-905 cell growth in a cell viability assay.

D-392MG = assay type: functional, cell-based; conditions: Homo sapiens
GP5d = assay type: functional, cell-based; conditions: Homo sapiens;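 also: growth inhibition of human GP5d cells, read out with a cell viability assay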
Description: SANGER: Inhibition of human GP5d cell growth in a cell viability assay.

GMS-10 = assay type: functional, cell-based; conditions: Homo sapiens;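 also: growth inhibition of GMS-10 cells, read out as cell viability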
Description: SANGER: Inhibition of human GMS-10 cell growth in a cell viability assay.

HCC1806 = assay type: functional, cell-based; conditions: Homo sapiens;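 also: growth inhibition of the cancer cell line, determined with a cell viability assay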
Description: SANGER: Inhibition of human HCC1806 cell growth in a cell viability assay.

SW1783 = assay type: functional, cell-based; conditions: Homo sapiens;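 also: cell growth inhibition measured with a viability assay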
Description: SANGER: Inhibition of human SW1783 cell growth in a cell viability assay.

NCI-H1755 = assay type: functional, cell-based; conditions: Homo sapiens;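 also: cell viability readout used to measure growth inhibition of NCI-H1755 cells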
Description: SANGER: Inhibition of human NCI-H1755 cell growth in a cell viability assay.

RMG-I = assay type: functional, cell-based; conditions: Homo sapiens;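 also: growth inhibition of human RMG-I cells, read out with a cell viability assay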
Description: SANGER: Inhibition of human RMG-I cell growth in a cell viability assay.

Daoy = assay type: functional, cell-based; conditions: Homo sapiens;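 also: daoy cell growth inhibition, read out as cell viability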
Description: SANGER: Inhibition of human Daoy cell growth in a cell viability assay.

LCLC-103H cell line = assay type: functional, cell-based; conditions: Homo sapiens
Description: SANGER: Inhibition of human LCLC-103H cell growth in a cell viability assay.

BXPC-3 = assay type: functional, cell-based; conditions: Homo sapiens;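 also: growth inhibition of human BxPC-3 cells, read out by a cell viability assay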
Description: SANGER: Inhibition of human BxPC-3 cell growth in a cell viability assay.

5637 = assay type: functional, cell-based; conditions: Homo sapiens
Description: SANGER: Inhibition of human 5637 cell growth in a cell viability assay.

NCI-H1437 = assay type: functional, cell-based; conditions: Homo sapiens;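 also: growth inhibition of human NCI-H1437 cells, read out by a cell viability assay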
Description: SANGER: Inhibition of human NCI-H1437 cell growth in a cell viability assay.

NCI-H2170 = assay type: functional, cell-based; conditions: Homo sapiens;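 also: cell viability assay measuring growth inhibition of human NCI-H2170 cancer cells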
Description: SANGER: Inhibition of human NCI-H2170 cell growth in a cell viability assay.

ChaGo-K-1 = assay type: functional, cell-based; conditions: Homo sapiens;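 also: growth inhibition of ChaGo-K-1 cells, read out with a cell viability assay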
Description: SANGER: Inhibition of human ChaGo-K-1 cell growth in a cell viability assay.

NB7 = assay type: functional, cell-based, Homo sapiens; conditions: Homo sapiens, NB7;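 also: growth inhibition of NB7 cells, read out with a cell viability assay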
Description: SANGER: Inhibition of human NB7 cell growth in a cell viability assay.

HT1197 = assay type: functional, cell-based, HT-1197; conditions: Homo sapiens
Description: SANGER: Inhibition of human HT-1197 cell growth in a cell viability assay.

NCI-H2122 = assay type: functional, cell-based; conditions: Homo sapiens;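 also: growth inhibition of the cells, read out with a cell viability assay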
Description: SANGER: Inhibition of human NCI-H2122 cell growth in a cell viability assay.

NCI-H2052 = assay type: functional, cell-based; conditions: Homo sapiens;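 also: growth inhibition of NCI-H2052 cells, read out with a cell viability assay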
Description: SANGER: Inhibition of human NCI-H2052 cell growth in a cell viability assay.

ASPC1 = assay type: functional, cell-based; conditions: Homo sapiens;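 also: growth inhibition of AsPC-1 cells, read out with a cell viability assay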
Description: SANGER: Inhibition of human AsPC-1 cell growth in a cell viability assay.

U2OS = assay type: functional, cell-based, U-2-OS; conditions: Homo sapiens;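 also: growth inhibition of human U-2-OS cells, determined with a cell viability assay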
Description: SANGER: Inhibition of human U-2-OS cell growth in a cell viability assay.

CAPAN-1 = assay type: functional, cell-based; conditions: Homo sapiens;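 also: growth suppression of CAPAN-1 cells, read out by a cell viability assay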
Description: SANGER: Inhibition of human CAPAN-1 cell growth in a cell viability assay.

A673 = assay type: functional, cell-based; conditions: Homo sapiens;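 also: growth inhibition of human A673 cells, read out through a cell viability assay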
Description: SANGER: Inhibition of human A673 cell growth in a cell viability assay.

NCI-H650 = assay type: functional, cell-based; conditions: Homo sapiens;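 also: growth inhibition of NCI-H650 cells, read out by a viability assay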
Description: SANGER: Inhibition of human NCI-H650 cell growth in a cell viability assay.

ESS-1 = assay type: functional, cell-based; conditions: Homo sapiens;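 also: growth inhibition of human ESS-1 cells, read out by a cell viability assay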
Description: SANGER: Inhibition of human ESS-1 cell growth in a cell viability assay.

T47D = assay type: functional, cell-based; conditions: Homo sapiens;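 also: growth inhibition of human T47D cells, measured with a cell viability assay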
Description: SANGER: Inhibition of human T47D cell growth in a cell viability assay.

M14 = assay type: functional, cell-based; conditions: Homo sapiens;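 also: growth inhibition of M14 cells, read out with a cell viability assay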
Description: SANGER: Inhibition of human M14 cell growth in a cell viability assay.

MFE-280 = assay type: functional, cell-based; conditions: Homo sapiens;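 also: growth inhibition of MFE-280 cells, determined with a cell viability readout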
Description: SANGER: Inhibition of human MFE-280 cell growth in a cell viability assay.

HLE = assay type: functional, cell-based; conditions: Homo sapiens;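 also: growth inhibition of human HLE cells, read out by a cell viability assay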
Description: SANGER: Inhibition of human HLE cell growth in a cell viability assay.

CAL-85-1 = assay type: functional, cell-based; conditions: Homo sapiens;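 also: growth inhibition of human CAL-85-1 cells, read out with a cell viability assay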
Description: SANGER: Inhibition of human CAL-85-1 cell growth in a cell viability assay.

G-402 = assay type: functional, cell-based; conditions: Homo sapiens
Description: SANGER: Inhibition of human G-402 cell growth in a cell viability assay.

CAL-51 = assay type: functional, cell-based; conditions: Homo sapiens;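 also: human CAL-51 cell line, growth inhibition read out via a cell viability assay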
Description: SANGER: Inhibition of human CAL-51 cell growth in a cell viability assay.

SW1573 = assay type: functional, cell-based; conditions: Homo sapiens;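 also: growth inhibition of SW1573 cells, read out with a cell viability assay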
Description: SANGER: Inhibition of human SW1573 cell growth in a cell viability assay.

SMILES: NC(=O)Nc1cc(-c2cccc(F)c2)sc1C(=O)N[C@H]1CCCNC1 [AZD-7762]
- IC50 (SW756): 35.8 nM
- IC50 (D-542MG): > 2000 nM
- IC50 (KYSE-450): 1050 nM
- IC50 (NCI-H2452): 936 nM
- IC50 (COR-L105): 222 nM
- IC50 (ACHN): 134 nM
- IC50 (CAL-62): 571 nM
- IC50 (MHH-ES-1): > 2000 nM
- IC50 (YAPC): > 2000 nM
- IC50 (BFTC-905): 985 nM
- IC50 (D-392MG): 456 nM
- IC50 (GP5d): 412 nM
- IC50 (GMS-10): 1350 nM
- IC50 (HCC1806): 40.2 nM
- IC50 (SW1783): 933 nM
- IC50 (NCI-H1755): 273 nM
- IC50 (RMG-I): 1910 nM
- IC50 (Daoy): 451 nM
- IC50 (LCLC-103H cell line): 980 nM
- IC50 (BXPC-3): 1310 nM
- IC50 5637: 193 nM
- IC50 (NCI-H1437): > 2000 nM
- IC50 (NCI-H2170): 1520 nM
- IC50 (ChaGo-K-1): 325 nM
- IC50 (NB7): > 2000 nM
- IC50 (HT1197): > 2000 nM
- IC50 (NCI-H2122): 123 nM
- IC50 (NCI-H2052): > 2000 nM
- IC50 (ASPC1): 664 nM
- IC50 (U2OS): 158 nM
- IC50 (CAPAN-1): > 2000 nM
- IC50 (A673): 865 nM
- IC50 (NCI-H650): 1420 nM
- IC50 (ESS-1): 164 nM
- IC50 (T47D): > 2000 nM
- IC50 (M14): 145 nM
- IC50 (MFE-280): > 2000 nM
- IC50 (HLE): > 2000 nM
- IC50 (CAL-85-1): > 2000 nM
- IC50 (G-402): 64.6 nM
- IC50 (CAL-51): 514 nM
- IC50 (SW1573): 942 nM

SMILES: Cc1ccc(-n2nc(C(C)(C)C)cc2NC(=O)Nc2ccc(OCCN3CCOCC3)c3ccccc23)cc1 [DORAMAPIMOD]
- IC50 (SW756): > 10000 nM
- IC50 (D-542MG): > 10000 nM
- IC50 (KYSE-450): > 10000 nM
- IC50 (NCI-H2452): > 10000 nM
- IC50 (COR-L105): > 10000 nM
- IC50 (ACHN): > 10000 nM
- IC50 (CAL-62): > 10000 nM
- IC50 (MHH-ES-1): > 10000 nM
- IC50 (YAPC): > 10000 nM
- IC50 (BFTC-905): > 10000 nM
- IC50 (D-392MG): > 10000 nM
- IC50 (GP5d): > 10000 nM
- IC50 (GMS-10): > 10000 nM
- IC50 (HCC1806): > 10000 nM
- IC50 (SW1783): > 10000 nM
- IC50 (NCI-H1755): > 10000 nM
- IC50 (RMG-I): > 10000 nM
- IC50 (Daoy): > 10000 nM
- IC50 (LCLC-103H cell line): > 10000 nM
- IC50 (BXPC-3): > 10000 nM
- IC50 5637: > 10000 nM
- IC50 (NCI-H1437): > 10000 nM
- IC50 (NCI-H2170): > 10000 nM
- IC50 (ChaGo-K-1): > 10000 nM
- IC50 (NB7): > 10000 nM
- IC50 (HT1197): > 10000 nM
- IC50 (NCI-H2122): > 10000 nM
- IC50 (NCI-H2052): > 10000 nM
- IC50 (ASPC1): > 10000 nM
- IC50 (U2OS): > 10000 nM
- IC50 (CAPAN-1): > 10000 nM
- IC50 (A673): > 10000 nM
- IC50 (NCI-H650): > 10000 nM
- IC50 (ESS-1): > 10000 nM
- IC50 (T47D): > 10000 nM
- IC50 (M14): > 10000 nM
- IC50 (MFE-280): > 10000 nM
- IC50 (HLE): > 10000 nM
- IC50 (CAL-85-1): > 10000 nM
- IC50 (G-402): > 10000 nM
- IC50 (CAL-51): > 10000 nM
- IC50 (SW1573): > 10000 nM

SMILES: CN(NC(=O)CC(=O)NN(C)C(=S)c1ccccc1)C(=S)c1ccccc1 [ELESCLOMOL]
- IC50 (SW756): 4.13 nM
- IC50 (D-542MG): > 200 nM
- IC50 (KYSE-450): 39 nM
- IC50 (NCI-H2452): 21.7 nM
- IC50 (COR-L105): 6.76 nM
- IC50 (ACHN): > 200 nM
- IC50 (CAL-62): 55.2 nM
- IC50 (MHH-ES-1): 5.69 nM
- IC50 (YAPC): 70.3 nM
- IC50 (BFTC-905): 20.5 nM
- IC50 (D-392MG): 78.7 nM
- IC50 (GP5d): > 200 nM
- IC50 (GMS-10): 107 nM
- IC50 (HCC1806): 23.5 nM
- IC50 (SW1783): 139 nM
- IC50 (NCI-H1755): 13.3 nM
- IC50 (RMG-I): > 200 nM
- IC50 (Daoy): 16.8 nM
- IC50 (LCLC-103H cell line): > 200 nM
- IC50 (BXPC-3): > 200 nM
- IC50 5637: 35.5 nM
- IC50 (NCI-H1437): 87.7 nM
- IC50 (NCI-H2170): 28.8 nM
- IC50 (ChaGo-K-1): 5.4 nM
- IC50 (NB7): 14.4 nM
- IC50 (HT1197): 21.8 nM
- IC50 (NCI-H2122): 130 nM
- IC50 (NCI-H2052): 63.3 nM
- IC50 (ASPC1): 37.7 nM
- IC50 (U2OS): 19.7 nM
- IC50 (CAPAN-1): > 200 nM
- IC50 (A673): 11.6 nM
- IC50 (NCI-H650): 36.6 nM
- IC50 (ESS-1): 102 nM
- IC50 (T47D): 16.8 nM
- IC50 (M14): 122 nM
- IC50 (MFE-280): > 200 nM
- IC50 (HLE): 9.93 nM
- IC50 (CAL-85-1): 72.7 nM
- IC50 (G-402): 16.2 nM
- IC50 (CAL-51): < 0.781 nM
- IC50 (SW1573): 10.7 nM

SMILES: CC1=C(/C=C/C(C)=C/C=C/C(C)=C/C(=O)O)C(C)(C)CCC1 [TRETINOIN]
- IC50 (SW756): > 10000 nM
- IC50 (D-542MG): > 10000 nM
- IC50 (KYSE-450): > 10000 nM
- IC50 (NCI-H2452): > 10000 nM
- IC50 (COR-L105): > 10000 nM
- IC50 (ACHN): > 10000 nM
- IC50 (CAL-62): > 10000 nM
- IC50 (MHH-ES-1): > 10000 nM
- IC50 (YAPC): > 10000 nM
- IC50 (BFTC-905): > 10000 nM
- IC50 (D-392MG): > 10000 nM
- IC50 (GP5d): > 10000 nM
- IC50 (GMS-10): > 10000 nM
- IC50 (HCC1806): 729 nM
- IC50 (SW1783): > 10000 nM
- IC50 (NCI-H1755): > 10000 nM
- IC50 (RMG-I): > 10000 nM
- IC50 (Daoy): > 10000 nM
- IC50 (LCLC-103H cell line): > 10000 nM
- IC50 (BXPC-3): > 10000 nM
- IC50 5637: > 10000 nM
- IC50 (NCI-H1437): > 10000 nM
- IC50 (NCI-H2170): > 10000 nM
- IC50 (ChaGo-K-1): > 10000 nM
- IC50 (NB7): > 10000 nM
- IC50 (HT1197): > 10000 nM
- IC50 (NCI-H2122): > 10000 nM
- IC50 (NCI-H2052): > 10000 nM
- IC50 (ASPC1): > 10000 nM
- IC50 (U2OS): > 10000 nM
- IC50 (CAPAN-1): > 10000 nM
- IC50 (A673): > 10000 nM
- IC50 (NCI-H650): > 10000 nM
- IC50 (ESS-1): > 10000 nM
- IC50 (T47D): > 10000 nM
- IC50 (M14): > 10000 nM
- IC50 (MFE-280): > 10000 nM
- IC50 (HLE): > 10000 nM
- IC50 (CAL-85-1): > 10000 nM
- IC50 (G-402): > 10000 nM
- IC50 (CAL-51): > 10000 nM
- IC50 (SW1573): > 10000 nM
